Data reported in PMC9583322, “Vicinal Diaryl-Substituted Isoxazole and Pyrazole Derivatives with In Vitro Growth Inhibitory and In Vivo Antitumor Activity” (ACS Omega, 2022).

Tests used:
[1] = tested on: hepatocellular carcinoma and breast cancer cell lines; assay: SRB cytotoxicity, cell line panel; assay type: cell-based; conditions: Homo sapiens, range over hepatocellular carcinoma and breast cancer cell lines
Protocol: Mahlavu, FOCUS, SNU475 (1000 cell/well in 150 μL/well); Huh7, MCF7 (2500 cell/well in 150 μL/well); HepG2, Hep3B, SKBR3 (3000 cell/well in 150 μL/well); PLC-PRF-5, Hep40 (5000 cell/well in 150 μL/well); MDA-MB-231, MDA-MB-468, MCF10A (6000 cell/well in 150 μL/well); and ZR-75 (7500 cell/well in 150 μL/well) were cultured in 96-well plates and were inoculated in an incubator for 24 hours. The compounds were dissolved in dimethyl sulfoxide (DMSO) (Sigma, St Louis, MO) as a 20 mM stock solution. The treatment of cells with the compounds was done in a concentration range starting from 40 to 2.5 μM. The compounds which were below 2.5 μM were tested in a concentration range from 2.5 to 0.15 μM. End of the 72h compound treatment, the cells were fixed using 10% (v/v) trichloroacetic acid (MERCK) for an hour and washed with ddH2O, and left for air-drying. The fixed plates were stained with 50 μL of sulforhodamine B (SRB) solution (Sigma) at RT for 10 min. To remove unbound SRB dye, acetic acid was used to wash cells three times and left for drying. The protein-bound SRB was solubilized with 10 mM Tris-base (Sigma) and their absorbance was measured with a 96-well plate reader at 515 nm wavelength (ELx800, Biotek). The IC50 values of compounds were calculated in comparison with control group DMSO. Data with R^2 values larger than 0.9 are considered significant.

[2] = tested on: 22 cancer cells of the NCI 60 cell line panel; assay: NCI-60 single-dose screen, text summary; assay type: cell-based; conditions: against 22 cancer cells, read-out: growth inhibition (GI) values in the range
Protocol: (§1) Moreover, in vitro single-dose anticancer screening of 11 and 85 at 10 μM was performed utilizing the stable panel of 60 cell lines comprising 9 different cancer types at the National Cancer Institute (NCI) under the Developmental Therapeutics Program (Table S1).[31]

[3] = tested on: SNB-19; assay: NCI-60 single-dose screen; assay type: cell-based; conditions: Homo sapiens, SNB-19, CNS Cancer, read-out: % Growth Inhibition (GI%)
Protocol: as §1

[4] = tested on: SN12C; assay: NCI-60 single-dose screen; assay type: cell-based; conditions: Homo sapiens, Renal Cancer, read-out: % Growth Inhibition (GI%)
Protocol: as §1

[5] = tested on: ACHN; assay: NCI-60 single-dose screen; assay type: cell-based; conditions: Homo sapiens, Renal Cancer, read-out: % Growth Inhibition (GI%)
Protocol: as §1

[6] = tested on: SK-OV-3; assay: NCI-60 single-dose screen; assay type: cell-based; conditions: Homo sapiens, SK-OV-3, Ovarian Cancer, read-out: % Growth Inhibition (GI%)
Protocol: as §1

[7] = tested on: SF-539; assay: NCI-60 single-dose screen; assay type: cell-based; conditions: Homo sapiens, SF-539, CNS Cancer, read-out: % Growth Inhibition (GI%)
Protocol: as §1

[8] = tested on: MALME-3M; assay: NCI-60 single-dose screen; assay type: cell-based; conditions: Homo sapiens, Melanoma, read-out: % Growth Inhibition (GI%)
Protocol: as §1

[9] = tested on: BT-549; assay: NCI-60 single-dose screen; assay type: cell-based; conditions: Homo sapiens, BT-549, Breast Cancer, read-out: % Growth Inhibition (GI%)
Protocol: as §1

[10] = tested on: OVCAR-3; assay: NCI-60 single-dose screen; assay type: cell-based; conditions: Homo sapiens, OVCAR-3, Ovarian Cancer, read-out: % Growth Inhibition (GI%)
Protocol: as §1

[11] = tested on: SNB-75; assay: NCI-60 single-dose screen; assay type: cell-based; conditions: Homo sapiens, SNB-75, CNS Cancer, read-out: % Growth Inhibition (GI%)
Protocol: as §1

[12] = tested on: UACC-62; assay: NCI-60 single-dose screen; assay type: cell-based; conditions: Homo sapiens, UACC-62, Melanoma, read-out: % Growth Inhibition (GI%)
Protocol: as §1

[13] = tested on: 786-0; assay: NCI-60 single-dose screen; assay type: cell-based; conditions: Homo sapiens, 786-0, Renal Cancer, read-out: % Growth Inhibition (GI%)
Protocol: as §1

[14] = tested on: CAKI-1; assay: NCI-60 single-dose screen; assay type: cell-based; conditions: Homo sapiens, CAKI-1, Renal Cancer, read-out: % Growth Inhibition (GI%)
Protocol: as §1

[15] = tested on: UACC-257; assay: NCI-60 single-dose screen; assay type: cell-based; conditions: Homo sapiens, UACC-257, Melanoma, read-out: % Growth Inhibition (GI%)
Protocol: as §1

[16] = tested on: MDA-MB-231; assay: NCI-60 single-dose screen; assay type: cell-based; conditions: Homo sapiens, MDA-MB-231, Breast Cancer, read-out: % Growth Inhibition (GI%)
Protocol: as §1

[17] = tested on: HCT-15; assay: NCI-60 single-dose screen; assay type: cell-based; conditions: Homo sapiens, HCT-15, Colon Cancer, read-out: % Growth Inhibition (GI%)
Protocol: as §1

[18] = tested on: MCF10A; assay: SRB cytotoxicity assay, immortalized normal breast epithelial cells; assay type: cell-based; conditions: Homo sapiens, MCF-10A, 72 h treatment, non-tumorigenic immortalized breast epithelial cells
Protocol: HepG2, FOCUS, Hep3B, Mahlavu, Huh7, Hep40, and PLC-PRF-5 hepatocellular carcinoma cells; MCF-7, MDA-MB-231, MDA-MB-468, SKBR3, and ZR-75 breast cancer cells; and normal-like epithelial MCF-10A breast cells were cultured in low-glucose Dulbecco’s modified Eagle’s medium (DMEM) (Biological Industries-BI) supplemented with 10% fetal bovine serum (FBS) (Gibco/Thermo Fisher Scientific), 2 mM L-Glutamine (Gibco/Thermo Fisher Scientific), 100 Units/mL Penicillin/Streptomycin, and 0.1 mM non-essential amino acid (Gibco/Thermo Fisher Scientific). […]
Mahlavu, FOCUS, SNU475 (1000 cell/well in 150 μL/well); Huh7, MCF7 (2500 cell/well in 150 μL/well); HepG2, Hep3B, SKBR3 (3000 cell/well in 150 μL/well); PLC-PRF-5, Hep40 (5000 cell/well in 150 μL/well); MDA-MB-231, MDA-MB-468, MCF10A (6000 cell/well in 150 μL/well); and ZR-75 (7500 cell/well in 150 μL/well) were cultured in 96-well plates and were inoculated in an incubator for 24 hours. […] The protein-bound SRB was solubilized with 10 mM Tris-base (Sigma) and their absorbance was measured with a 96-well plate reader at 515 nm wavelength (ELx800, Biotek). The IC50 values of compounds were calculated in comparison with control group DMSO. […]

[19] = tested on: Mahlavu, Huh7, MCF7, and MDA-MB-231; assay: Annexin V flow cytometry; assay type: cell-based, human; conditions: 5 μM; compared to the control group
Protocol: Mahlavu, Huh7, MCF7, and MDA-MB-231 were seeded onto six-well plates. After 24 h, the cells were incubated with 5 μM compounds 11 and 85 by keeping DMSO as a negative control. […] PI and Annexin V dyes were added onto cell lysates for 15 min at room temperature in the dark to stain the cells for detecting apoptotic cell populations. The cells were analyzed by flow cytometry.

Work on `Cc1ccccc1COc1ccc(-c2noc(C)c2-c2ccc(Cl)cc2)cc1` [compound 11, 4-(4-Chlorophenyl)-5-methyl-3-(4-((2-methylbenzyl)oxy)phenyl)isoxazole] yielded an IC50 [1] of 0.7 to 9.5 µM, an inhibition at 10 µM [2] of 45 to 100% and an inhibition at 10 µM [3] of 44.5%. It also gave an inhibition at 10 µM [4] of 31.7%, an inhibition at 10 µM [5] of 33% and an inhibition at 10 µM [6] of 40.5%. It also gave an inhibition at 10 µM [7] of 36.5%, an inhibition at 10 µM [8] of 40.2% and an inhibition at 10 µM [9] of 33.8%. It also gave an inhibition at 10 µM [10] of 79.3%, an inhibition at 10 µM [11] of 47.1% and an inhibition at 10 µM [12] of 51.5%. The inhibition at 10 µM [13] was 24.5%, the inhibition at 10 µM [14] was 51.3% and the inhibition at 10 µM [15] was 29.1%. For the same compound, the inhibition at 10 µM [16] was 79.2%, the inhibition at 10 µM [17] was 62.5% and the IC50 [18] was 12.1 µM. For the same compound, the “percentage of apoptotic populations (Annexin V)” value [19] was “increased”.
In the case of `Cc1ccccc1COc1ccc(-c2ccnn2-c2ccc(Cl)cc2)cc1` [compound 85, 1-(4-Chlorophenyl)-5-(4-((2-methylbenzyl)oxy)phenyl)-1H-pyrazole], the IC50 [1] is reported as 0.7 to 9.5 µM, the inhibition at 10 µM [2] is reported as 45 to 100% and the inhibition at 10 µM [3] is reported as 38%. The inhibition at 10 µM [4] was 32.4%, the inhibition at 10 µM [5] was 22.4% and the inhibition at 10 µM [6] was 36.3%. It also gave an inhibition at 10 µM [7] of 28.2%, an inhibition at 10 µM [8] of 32.8% and an inhibition at 10 µM [9] of 25%. For the same compound, the inhibition at 10 µM [10] was 73.4%, the inhibition at 10 µM [11] was 39.3% and the inhibition at 10 µM [12] was 39.3%. For the same compound, the inhibition at 10 µM [13] was 17.2%, the inhibition at 10 µM [14] was 40.3% and the inhibition at 10 µM [15] was 24.3%. For the same compound, the inhibition at 10 µM [16] was 75.8%, the inhibition at 10 µM [17] was 60.1% and the IC50 [18] was 7.6 µM. The “percentage of apoptotic populations (Annexin V)” value [19] was “increased”.
